Measured values reported in ChEMBL document CHEMBL3046856, “Synthesis and fungicidal activity of novel pimprinine analogues” (2012).

Columns and labels:
Format in all cases: functional
[1] = tested on: Alternaria solani; test: Fungicidal activity against Alternaria solani grown on compound supplemented artificial media assessed as control of disease or pathogen at 20 ppm measured after 5 to 14 days by artificial media assay
[2] = Fungicidal activity against Zymoseptoria tritici infected on compound pre-treated wheat leaf pieces assessed as control of disease or pathogen at 100 ppm measured after 5 to 14 days by leaf-piece assay
[3] = tested on: Pythium dissimile; test: Fungicidal activity against Pythium dissimile grown on compound supplemented artificial media assessed as control of disease or pathogen at 2 ppm measured after 5 to 14 days by artificial media assay
[4] = tested on: Uromyces viciae-fabae; test: Fungicidal activity against Uromyces viciae-fabae infected compound pre-treated bean leaf pieces assessed as control of disease or pathogen at 100 ppm measured after 5 to 14 days by leaf-piece assay
[5] = tested on: Pythium dissimile; test: Fungicidal activity against Pythium dissimile grown on compound supplemented artificial media assessed as control of disease or pathogen at 20 ppm measured after 5 to 14 days by artificial media assay
[6] = tested on: Alternaria solani; test: Fungicidal activity against Alternaria solani grown on compound supplemented artificial media assessed as control of disease or pathogen at 2 ppm measured after 5 to 14 days by artificial media assay
[7] = tested on: Botrytis cinerea; test: Fungicidal activity against Botryotinia fuckeliana grown on compound supplemented artificial media assessed as control of disease or pathogen at 20 ppm measured after 5 to 14 days by artificial media assay
[8] = tested on: Botrytis cinerea; test: Fungicidal activity against Botryotinia fuckeliana grown on compound supplemented artificial media assessed as control of disease or pathogen at 2 ppm measured after 5 to 14 days by artificial media assay

`COC(=O)n1cc(-c2ocnc2Br)c2ccccc21` showed an Activity [1] of 0%, an Activity [2] of 0% and an Activity [3] of 0%. The Activity [4] was 0%, the Activity [5] was 0% and the Activity [6] was 0%.
In the case of `COCC(=O)n1cc(-c2ocnc2Br)c2ccccc21`, the Activity [1] is reported as 99%, the Activity [2] is reported as 0% and the Activity [7] is reported as 99%. It also gave an Activity [8] of 0%, an Activity [3] of 0% and an Activity [4] of 77%. For the same molecule, the Activity [5] was 77% and the Activity [6] was 0%.
In the case of `Brc1ncoc1-c1cn(CC2CC2)c2ccccc12`, the Activity [1] is reported as 0%, the Activity [2] is reported as 0% and the Activity [7] is reported as 0%. For the same molecule, the Activity [8] was 0%, the Activity [3] was 0% and the Activity [4] was 0%. The Activity [5] was 55% and the Activity [6] was 0%.
`c1ccc2c(-c3cnco3)c[nH]c2c1` gave an Activity [1] of 77%, an Activity [2] of 0% and an Activity [7] of 0%. The Activity [8] was 0%, the Activity [3] was 0% and the Activity [4] was 0%. The Activity [5] was 99% and the Activity [6] was 0%.
`Brc1ncoc1-c1c[nH]c2ccccc12` showed an Activity [1] of 99%, an Activity [2] of 0% and an Activity [7] of 99%. For the same molecule, the Activity [8] was 0%, the Activity [3] was 0% and the Activity [4] was 77%. It also gave an Activity [5] of 99% and an Activity [6] of 0%.
With `Cn1cc(-c2ocnc2Cl)c2ccccc21` the Activity [1] was 0%, the Activity [2] was 0% and the Activity [7] was 0%. For the same molecule, the Activity [8] was 0%, the Activity [3] was 0% and the Activity [4] was 77%. The Activity [5] was 0% and the Activity [6] was 0%.
For `CCn1cc(-c2ocnc2Cl)c2ccccc21`, the Activity [1] was 0%, the Activity [2] was 0% and the Activity [7] was 0%. For the same molecule, the Activity [8] was 0%, the Activity [3] was 0% and the Activity [4] was 99%. It also gave an Activity [5] of 55% and an Activity [6] of 0%.
Work on `C=CCn1cc(-c2ocnc2Cl)c2ccccc21` yielded an Activity [1] of 0%, an Activity [2] of 0% and an Activity [7] of 0%. It also gave an Activity [8] of 0%, an Activity [3] of 0% and an Activity [4] of 99%. It also gave an Activity [5] of 0% and an Activity [6] of 0%.
Molecule `CC(=O)n1cc(-c2ocnc2Cl)c2ccccc21` has an Activity [1] of 0%, an Activity [2] of 0% and an Activity [7] of 0%. For the same molecule, the Activity [8] was 0%, the Activity [3] was 0% and the Activity [4] was 0%. For the same molecule, the Activity [5] was 0% and the Activity [6] was 0%.
`CCC(=O)n1cc(-c2ocnc2Cl)c2ccccc21` showed an Activity [1] of 0%, an Activity [2] of 0% and an Activity [7] of 0%. The Activity [8] was 0%, the Activity [3] was 0% and the Activity [4] was 0%. The Activity [5] was 0% and the Activity [6] was 0%.
Work on `CCS(=O)(=O)n1cc(-c2ocnc2Cl)c2ccccc21` yielded an Activity [1] of 0%, an Activity [2] of 0% and an Activity [7] of 0%. The Activity [8] was 0%, the Activity [3] was 0% and the Activity [4] was 55%. For the same molecule, the Activity [5] was 27% and the Activity [6] was 0%.
Work on `O=C(CCl)n1cc(-c2ocnc2Cl)c2ccccc21` yielded an Activity [1] of 55%, an Activity [2] of 0% and an Activity [7] of 99%. It also gave an Activity [8] of 0%, an Activity [3] of 0% and an Activity [4] of 49%. It also gave an Activity [5] of 99% and an Activity [6] of 0%.
Work on `O=C(C(Cl)Cl)n1cc(-c2ocnc2Cl)c2ccccc21` yielded an Activity [1] of 99%, an Activity [2] of 0% and an Activity [7] of 99%. The Activity [8] was 0%, the Activity [3] was 0% and the Activity [4] was 0%. For the same molecule, the Activity [5] was 99% and the Activity [6] was 0%.
`O=C(n1cc(-c2ocnc2Cl)c2ccccc21)C(Cl)(Cl)Cl` showed an Activity [1] of 99%, an Activity [2] of 0% and an Activity [7] of 99%. The Activity [8] was 0%, the Activity [3] was 0% and the Activity [4] was 55%. The Activity [5] was 99% and the Activity [6] was 0%.
With `CC(Cl)C(=O)n1cc(-c2ocnc2Cl)c2ccccc21` (centres undefined) the Activity [1] was 55%, the Activity [2] was 0% and the Activity [7] was 0%. It also gave an Activity [8] of 0%, an Activity [3] of 0% and an Activity [4] of 55%. It also gave an Activity [5] of 0% and an Activity [6] of 0%.
Molecule `COC(=O)n1cc(-c2ocnc2Cl)c2ccccc21` has an Activity [1] of 0%, an Activity [2] of 0% and an Activity [3] of 0%. For the same molecule, the Activity [4] was 0%, the Activity [5] was 0% and the Activity [6] was 0%.
